Experimental data reported in patent publication US20030170722A1, “Methods and reagents for regulating apoptosis” (priority 2001, published 2003).

Legend:
Assay type in all cases: cell-based
[1] = system: Rat2 fibroblasts; assay: TUNEL analysis of staurosporine-induced apoptosis in Rat2puro / Rat2M11L cells; conditions: 2 μM staurosporine, 5 h
Procedure: Ectopic Expression of M11L. Control pBabePuro and pBabe-PuroM11L vectors were transiently transfected into BOSC 23 cells and packaged into ecotropic virus particles as described (27). After infection of Rat2 fibroblasts, pooled clones of cells that had stably incorporated the respective proviruses were selected on the basis of ability to grow in the presence of 2.5 μg/ml puromycin, and designated Rat2puro and Rat2M11L. Expression of the M11L protein by Rat2M11L cells was verified by immunoblot analysis (data not shown). Transient expression of GFP chimeric proteins for flow cytometry was accomplished by transfecting HeLa cells with GFP plasmid constructs using the Lipofectin Plus reagent (GIBCO BRL) as described (28). Analysis was conducted 24 h after transfection.
Induction and Measurement of Apoptosis. Apoptosis was induced by addition of staurosporine (Sigma Chemical Co.) to the cell culture medium at a final concentration of 2 μM. Apoptotic cells were identified by measuring the characteristic elevation in levels of nicked DNA using the previously described terminal deoxynucleotidyl transferase-mediated dUTP-fluorescein nick end labeling (TUNEL) reaction (19, 29).

[2] = system: Caspase-3; assay: Caspase-3 activation by SDS-PAGE and immunoblot in Rat2puro / Rat2M11L cells; conditions: 5 μM staurosporine, 4 h
Procedure: Measurement of Caspase-3 Activation. Rat2puro and Rat2-M11L cells (10^6) were incubated with 5 μM staurosporine for up to 4 h. Caspase-3 activation was detected by SDS-PAGE and immunoblot analysis as described (30) using an antibody directed against the large subunit of the active enzyme (provided by Dr. D. Nicholson, MerckFrosst Center for Therapeutic Research, Montreal, Quebec, Canada).

[3] = system: Rat2 fibroblasts; conditions: control cells, CCCP 50 μM
Procedure: Measurement of Mitochondrial Membrane Potential in Cells Expressing M11L Constructs. Rat2puro or Rat2M11L cells were cultured in 12-well plates (5×10^5 cells/well) and treated with 2 μM staurosporine for 4 h. As the staurosporine stock was prepared in DMSO, control cells were treated with an equivalent amount of DMSO alone. Thereafter, the cells were stained with the green fluorescent dye 3,3′dihexyloxacarbocyanine iodide (DiOC6; Molecular Probes). […] Cells were incubated with 0.5 nM DiOC6 at 37° C. for 10 min, harvested with trypsin, and then washed and resuspended in RPMI lacking phenol red (GIBCO BRL). […] CCCP was added to the cell culture medium at a final concentration of 50 μM during and after dye addition. Flow cytometric analysis was conducted using a Becton Dickinson FACSCalibur™ flow cytometer equipped with an argon ion laser with 15 mW of excitation at 488 nm. Data were acquired at 10,000 cells per sample, and the fluorescent signal due to excitation of DiOC6 at 488 nm was detected through the FL1 channel equipped with a 530 nm filter (30 nm band pass). Light scatter signals were acquired at linear gain, and fluorescence signals were acquired at logarithmic gain.

[4] = system: HeLa cells; assay: Mitochondrial membrane potential by TMRE fluorescence in HeLa cells expressing GFP constructs; conditions: CCCP
Procedure: Measurement of Mitochondrial Membrane Potential in Cells Expressing M11L Constructs. […] Flow cytometric analysis was conducted using a Becton Dickinson FACSCalibur™ flow cytometer equipped with an argon ion laser with 15 mW of excitation at 488 nm. […] HeLa cells transiently expressing GFP plasmid constructs were treated with 2.5 μM staurosporine, and control samples were treated with DMSO alone. […] Flow cytometric analysis to detect green fluorescence due to GFP and orange fluorescence due to TMRE was conducted using a FACSCalibur™ instrument specified above. GFP fluorescence was collected after a 530/30-nm band pass filter, and TMRE fluorescence was acquired through a 585/42-nm band pass filter. Electronic fluorescence compensation was set to eliminate any spectral overlap of the emitted signals. Data were acquired at 10,000 cells per sample with fluorescence signals at logarithmic gain. The percentage of GFP-positive cells that were also TMRE-positive was then calculated for each gated cell population.

Molecule	levels of TUNEL-positive (apoptotic) cells [1]	Caspase-3 activation (32 kD proenzyme reduced, p19 cleavage product) [2]	DiOC6 fluorescence (mitochondrial membrane potential) [3]	TMRE fluorescence (mitochondrial membrane potential) [4]
CN[C@@H]1C[C@H]2O[C@@](C)([C@@H]1OC)n1c3ccccc3c3c4c(c5c6ccccc6n2c5c31)C(=O)NC4 [staurosporine]	steady increase in the levels of TUNEL-positive Rat2puro cells	resulted in activation of Caspase-3		
carbonyl cyanide mchlorophenyl hydrazone [CCCP]			Fluorescence was diminished	induced a marked loss of TMRE fluorescence
